# Laboratory results taken from patent US7368454B2, “(3,4-dihydro-quinazolin-2-yl)-aryl-amines” (Hoffmann-La Roche Inc., priority 2005, dated 2008).
# Molecular target: T1, recombinant human 5-HT5A receptor (Homo sapiens, UniProt P47898)
# T1 construct: expressed in transfected cells; host or cells: Human Embryonic Kidney-EBNA (HEK-EBNA) cells, transient expression, membranes
# Experiment: [3H]LSD radioligand binding assay
# Conditions: [3H]LSD approx. 1 nM; membranes from HEK-EBNA cells transiently expressing 5-HT5A; SPA; Ki from IC50 by Cheng-Prussoff equation
# Description: A [^3H]LSD radioligand binding assay was used to determine the affinity of the compounds for the recombinant human 5-HT5A receptor, in membranes from transiently (cDNA) expressed 5-HT 5A receptors in Human Embryonic Kidney-EBNA (HEK-EBNA) cells. Assay buffer consisted of Tris (50 mM) buffer containing 1 mM EGTA, 10 mM MgCl2 (pH 7.4) and 10 μM pargyline. The binding assay was carried out in 96-well-plates in the presence of [^3H]LSD (approximately 1 nM), approximately 2 μg/well of membrane protein, and 0.5 mg of Ysi-poly-1-lysine SPA beads in a final volume of 200 μl of buffer. Non-specific binding was defined using methiothepin 2 μM. Compounds were tested at 10 concentrations. All assays were conducted in duplicate and repeated at least two times. Assay plates were incubated for 120 min at room temperature before centrifugation. Bound ligand was determined using a Packard Topcount scintillation counter. IC50 values were calculated using a non-linear curve fitting program and Ki values calculated using the Cheng-Prussoff equation.
# T1 sequence (P47898 whole entry): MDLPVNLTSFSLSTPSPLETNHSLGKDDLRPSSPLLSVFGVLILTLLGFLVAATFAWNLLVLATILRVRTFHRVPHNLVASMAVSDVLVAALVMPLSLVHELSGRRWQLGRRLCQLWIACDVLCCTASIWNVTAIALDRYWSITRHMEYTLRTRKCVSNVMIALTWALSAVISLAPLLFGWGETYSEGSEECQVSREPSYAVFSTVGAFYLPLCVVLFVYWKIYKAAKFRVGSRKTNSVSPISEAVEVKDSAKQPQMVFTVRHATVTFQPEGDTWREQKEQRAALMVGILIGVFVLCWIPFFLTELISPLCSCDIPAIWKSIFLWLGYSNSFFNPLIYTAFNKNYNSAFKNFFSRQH
row,Compound,Ki
1,"Cc1cccc2c1CNC(Nc1cccc(C(F)(F)F)c1)=N2 [Example 1, (5-Methyl-3,4-dihydro-quinazolin-2-yl)-(3-trifluoromethyl-phenyl)-amine]",85 nM
2,"FC(F)(F)c1cccc(NC2=Nc3ccccc3CN2)c1 [Example 2, (3,4-Dihydro-quinazolin-2-yl)-(3-trifluoromethyl-phenyl)-amine]",91 nM
3,"FC(F)(F)c1cccc(NC2=Nc3cccc(Cl)c3CN2)c1 [Example 3, (5-Chloro-3,4-dihydro-quinazolin-2-yl)-(3-trifluoromethyl-phenyl)-amine]",118 nM
4,"Cc1cccc(NC2=Nc3ccccc3CN2)c1 [Example 4, (3,4-Dihydro-quinazolin-2-yl)-m-tolyl-amine]",143 nM
5,"c1ccc2c(c1)CNC(Nc1ccc3c(c1)CCC3)=N2 [Example 5, (3,4-Dihydro-quinazolin-2-yl)-indan-5-yl-amine]",149 nM
6,"c1ccc2c(c1)CNC(Nc1cccc3ccccc13)=N2 [Example 6, (3,4-Dihydro-quinazolin-2-yl)-naphthalen-1-yl-amine]",155 nM
7,"Clc1cccc(NC2=Nc3ccccc3CN2)c1 [Example 10, (3-Chloro-phenyl)-(3,4-dihydro-quinazolin-2-yl)-amine]",300 nM
8,"Clc1ccc(NC2=Nc3ccccc3CN2)cc1 [Example 15, (4-Chloro-phenyl)-(3,4-dihydro-quinazolin-2-yl)-amine]",990 nM
9,"Fc1ccccc1NC1=Nc2ccccc2CN1 [Example 16, (3,4-Dihydro-quinazolin-2-yl)-(2-fluoro-phenyl)-amine; hydriodide]",1000 nM
